Assay results reported in patent US20230150951A1, “2,5- OR 2,6-DISUBSTITUTED HYDROQUINONE DERIVATIVES WITH AT LEAST ONE CARBOXY, SULFO OR AMIDO GROUP USEFUL AS MEDICAMENTS” (OM PHARMA SA, priority 2020, published 2023).
Like-named read-outs stand apart in the source and are kept apart here.

What was measured:
Type in all cases: cell-based
[1] = test system: TGF-beta; experiment: Cytokine release after LPS induction on human whole blood: TGFβ
Protocol: (§1) Aim of this in vitro method is to assess compounds effects on release of a panel of cytokines from whole blood following lipopolysaccharide (LPS) induced inflammatory reaction. Whole blood was incubated with compounds for 1 h prior to LPS induction. Cytokine levels in blood were measured using a multiplex FACS-based panel.
(§2) IC50 values determined for the tested compounds expressed in microM [μM] and the values for the inhibition of cytokines were listed for each compound.
(§3) Effect on cytokines release after LPS induction was performed on the compounds dissolved in DMSO or H2O to reach 10-fold concentrated stock solutions and dissolved in culture media.
(§4) Test system: Whole blood was removed from a single donor (into lithium heparin coated tubes; BD Vacutainer; 367886) and diluted 1:5 with RPMI 1640 (Thermo Fisher, 61870036). Within 30 minutes of sampling, blood was incubated with compounds for 1 h prior to LPS stimulation (O111:B4—Sigma L4391; 10 ng/ml final concentration). Stimulation continued under standard cell culture conditions (37° C. with 5% CO2) overnight (18 h), after which plates were centrifuged and supernatant removed and frozen at −80° C. until used for analyses.
(§5) Dilution of test compounds: 10×concentrated solutions (concerning to the final assay concentrations) of each test compound were prepared with the appropriate solvent (in DMSO or in water). These 10× compound solutions (10 μl) were then added to 90 μl pre-diluted whole blood (whole blood: RPMI1640, 1:5) resulting in the final assay concentration.
(§6) Test method: Diluted whole blood (80 μl) was pre-incubated with compounds (10 μl) to give final assay concentrations of 100, 30, 10, 3, 1, 0.3 and 0.1×10^−6M. Blood was incubated at 37° C. with 5% CO2 for 1 h. LPS was diluted in cell culture media to a concentration of […]; 10 μl was added to the whole blood to give a final concentration of 10 ng/ml. Plates were incubated at 37° C. for 18 h. Plates were centrifuged at 3,000 RPM for 5 minutes at 4° C. and supernatant removed and frozen at −80° C. until FACS analysis was carried out.
(§7) Cytokine release was measured using a custom multiplex system (ELISA Genie) according to manufacturers instructions. Prepared samples were run on an Attune NxT flow cytometer (Thermo Fisher).
(§8) Quantification of cytokine release inhibition: known concentration standards were run as part of the cytokine panel to allow quantification of each cytokine concentration in each sample. This was carried out using FCAP Array v3.0 software.
(§9) Results: The dose response relationship on cytokine release following LPS induction of inflammatory response in whole blood was assessed for all compounds. IC50 values were determined for each compound for a panel of cytokines (GM-CSF, IFN-gamma, IL-1beta, IL-2, IL-4, IL-5, IL-6, IL-8, IL-9, IL-10, IL-12p40, IL-13, IL-17A, IL-17F, IL-18, IL-21, IL-22, IL-33, TGF-beta, TNF-alpha, TNF-beta).

[2] = test system: IL-33; experiment: Cytokine release after LPS induction on human whole blood: IL-33
Protocol: as §1, §2, §3, §4, §5, §6, §7, §8, §9

[3] = test system: IL-18; experiment: Cytokine release after LPS induction on human whole blood: IL-18
Protocol: as §1, §2, §3, §4, §5, §6, §7, §8, §9

[4] = test system: TNF-beta; experiment: Cytokine release after LPS induction on human whole blood: TNFβ
Protocol: as §1, §2, §3, §4, §5, §6, §7, §8, §9

[5] = test system: IL-4; experiment: Cytokine release after LPS induction on human whole blood: IL-4
Protocol: as §1, §2, §3, §4, §5, §6, §7, §8, §9

[6] = test system: IL-17A; experiment: Cytokine release after LPS induction on human whole blood: IL-17A
Protocol: as §1, §2, §3, §4, §5, §6, §7, §8, §9

[7] = test system: IL-5; experiment: Cytokine release after LPS induction on human whole blood: IL-5
Protocol: as §1, §2, §3, §4, §5, §6, §7, §8, §9

[8] = test system: IL-13; experiment: Cytokine release after LPS induction on human whole blood: IL-13
Protocol: as §1, §2, §3, §4, §5, §6, §7, §8, §9

[9] = target: T1, VEGFR-2 (Homo sapiens, UniProt P35968); experiment: VEGF-165 induced phosphorylation of VEGF-Receptor on HUVEC; conditions: HUVEC preincubated 60 min, VEGF165 25 ng/mL 2 min; read-out: VEGFR-Phosphorylation inhibition IC50
T1 construct: endogenous in cells; host or cells: primary HUVEC
T1 sequence (P35968 20-1356): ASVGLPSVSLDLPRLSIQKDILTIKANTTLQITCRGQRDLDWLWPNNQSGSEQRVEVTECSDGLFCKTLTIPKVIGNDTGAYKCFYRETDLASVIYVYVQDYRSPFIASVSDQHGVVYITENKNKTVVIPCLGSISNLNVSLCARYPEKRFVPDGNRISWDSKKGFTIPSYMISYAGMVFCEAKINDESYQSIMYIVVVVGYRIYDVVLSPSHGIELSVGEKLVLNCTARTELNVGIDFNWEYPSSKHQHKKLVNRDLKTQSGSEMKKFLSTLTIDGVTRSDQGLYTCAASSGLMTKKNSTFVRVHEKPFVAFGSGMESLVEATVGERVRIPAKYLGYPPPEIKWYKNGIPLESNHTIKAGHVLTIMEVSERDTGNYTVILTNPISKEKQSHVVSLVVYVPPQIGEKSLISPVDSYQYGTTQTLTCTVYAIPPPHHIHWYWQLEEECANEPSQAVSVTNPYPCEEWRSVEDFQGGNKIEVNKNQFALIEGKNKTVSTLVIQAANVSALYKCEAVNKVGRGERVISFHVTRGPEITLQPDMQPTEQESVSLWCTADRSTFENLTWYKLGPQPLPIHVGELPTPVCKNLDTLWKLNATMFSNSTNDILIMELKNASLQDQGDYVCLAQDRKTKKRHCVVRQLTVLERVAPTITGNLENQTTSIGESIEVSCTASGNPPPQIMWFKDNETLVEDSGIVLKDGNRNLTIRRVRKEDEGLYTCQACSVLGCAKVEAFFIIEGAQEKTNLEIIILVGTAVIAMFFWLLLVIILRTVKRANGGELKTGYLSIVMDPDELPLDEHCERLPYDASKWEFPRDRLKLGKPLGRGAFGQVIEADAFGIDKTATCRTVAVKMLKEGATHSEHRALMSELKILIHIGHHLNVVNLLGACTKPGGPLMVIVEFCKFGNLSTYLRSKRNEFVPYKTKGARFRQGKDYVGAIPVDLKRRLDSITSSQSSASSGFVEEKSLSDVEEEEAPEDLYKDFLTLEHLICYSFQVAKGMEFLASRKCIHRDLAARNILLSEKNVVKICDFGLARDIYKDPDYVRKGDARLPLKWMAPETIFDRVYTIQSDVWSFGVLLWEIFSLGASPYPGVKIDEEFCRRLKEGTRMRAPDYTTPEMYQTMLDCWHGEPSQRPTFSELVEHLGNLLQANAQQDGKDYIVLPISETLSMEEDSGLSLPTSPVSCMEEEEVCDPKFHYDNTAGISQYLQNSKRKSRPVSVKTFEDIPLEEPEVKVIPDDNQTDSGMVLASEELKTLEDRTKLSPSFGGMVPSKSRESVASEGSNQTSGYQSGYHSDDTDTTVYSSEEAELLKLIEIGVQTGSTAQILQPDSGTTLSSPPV

[10] = test system: TNF-alpha; experiment: Cytokine release after LPS induction on human whole blood: TNFα
Protocol: as §1, §2, §3, §4, §5, §6, §7, §8, §9

[11] = Homo sapiens, LPS 10 ng/ml, 18 h, read-out: Whole Blood: TGFβ IC50
[12] = human whole blood, inhibition of LPS induced inflammation, read-out: IC50 TGFbeta
[13] = Homo sapiens, LPS 10 ng/ml, 18 h, read-out: Whole Blood: IL-33 IC50
[14] = human whole blood, inhibition of LPS induced inflammation, read-out: IC50 IL-33
[15] = Homo sapiens, LPS 10 ng/ml, 18 h, read-out: Whole Blood: IL-18 IC50
[16] = human whole blood, inhibition of LPS induced inflammation, read-out: IC50 IL-18
[17] = Homo sapiens, LPS 10 ng/ml, 18 h, read-out: Whole Blood: TNF β IC50
[18] = human whole blood, inhibition of LPS induced inflammation, read-out: IC50 β
[19] = Homo sapiens, LPS 10 ng/ml, 18 h, read-out: Whole Blood: IL-4 IC50
[20] = human whole blood, inhibition of LPS induced inflammation, read-out: IC50 IL-4
[21] = Homo sapiens, LPS 10 ng/ml, 18 h, read-out: Whole Blood: IL-17A IC50
[22] = human whole blood, inhibition of LPS induced inflammation, read-out: IC50 IL-17A
[23] = Homo sapiens, LPS 10 ng/ml, 18 h, read-out: Whole Blood: IL-5 IC50
[24] = human whole blood, inhibition of LPS induced inflammation, read-out: IC50 IL-5
[25] = Homo sapiens, LPS 10 ng/ml, 18 h, read-out: Whole Blood: IL-13 IC50
[26] = human whole blood, inhibition of LPS induced inflammation, read-out: IC50 IL-13
[27] = Homo sapiens, LPS 10 ng/ml, 18 h, read-out: Whole Blood: TNF α IC50
[28] = human whole blood, inhibition of LPS induced inflammation, read-out: IC50 TNFa

SMILES	IC50 [1, 11] [µM]	IC50 [1, 12] [µM]	IC50 [2, 13] [µM]	IC50 [2, 14] [µM]	IC50 [3, 15] [µM]	IC50 [3, 16] [µM]	IC50 [4, 17] [µM]	IC50 [4, 18] [µM]	IC50 [5, 19] [µM]	IC50 [5, 20] [µM]	IC50 [6, 21] [nM]	IC50 [6, 22] [nM]	IC50 [7, 23] [µM]	IC50 [7, 24] [µM]	IC50 [8, 25] [µM]	IC50 [8, 26] [µM]	IC50 [9] [nM]	IC50 [10, 27] [nM]	IC50 [10, 28] [nM]
O=C(O)c1cc(NC(=O)c2cc(O)cc(C(=O)Nc3ccc(O)c(C(=O)O)c3)c2O)ccc1O [IIc-007a, 5-(3-(3-carboxy-4-hydroxyphenylaminocarbonyl)-2,5-dihydroxybenzamido)-2-hydroxy benzoic acid]	> 100	100	0.18	0.18	> 100	100	0.29	0.29	> 100	100	10	10	> 100	100	0.25	0.25	440	30	30
O=C(O)c1ccccc1CNC(=O)c1cc(O)cc(C(=O)O)c1O [IIa-053a, 3-(2-Carboxyphenylmethylaminocarbonyl)-2,5-dihydroxybenzoic acid]	> 100	100	12.1	12.1	> 100	100	91.5	91.5	> 100	100	> 100000	100000	> 100	100	29.9	29.9	270	20	20
